Measurements taken from patent US20250282741A1, “NOVEL BENZOFURANYL HYDROXYPHENYL METHANONE DERIVATIVE COMPOUND OR PHARMACEUTICALLY ACCEPTABLE SALT THEREOF” (INNOVO THERAPEUTICS INC., priority 2021, published 2025).

Assays:
[1] = target: HSP47 (Homo sapiens (Human), UniProt P50454); test: Evaluation of HSP47 activity (inhibition of collagen fibril formation, 340 nm); type: biochemical; conditions: for inhibition at 100 µM: HSP47 inhibition; for EC50: HSP47 9.45 μg/ml, collagen fibril formation, test compound 100 μM to 1 μM
Chain of HSP47 (P50454 19-418, species assumed): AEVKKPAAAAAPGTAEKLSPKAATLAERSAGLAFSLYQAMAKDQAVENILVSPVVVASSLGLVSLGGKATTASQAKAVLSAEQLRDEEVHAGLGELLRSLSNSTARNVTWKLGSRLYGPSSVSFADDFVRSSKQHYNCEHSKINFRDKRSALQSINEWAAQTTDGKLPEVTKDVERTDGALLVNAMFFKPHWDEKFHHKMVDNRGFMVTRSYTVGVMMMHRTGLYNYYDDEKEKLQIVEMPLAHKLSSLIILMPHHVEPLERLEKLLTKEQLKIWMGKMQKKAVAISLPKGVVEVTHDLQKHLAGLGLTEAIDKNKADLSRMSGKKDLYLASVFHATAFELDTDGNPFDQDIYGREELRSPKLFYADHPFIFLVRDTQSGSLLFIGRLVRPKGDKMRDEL
Experimental: Fibrils were formed by adding 180 ul of phosphate-buffered saline (PBS, pH 7.4) solution to 20 ul of collagen dissolved in acidic solution (collagen solution, UK), which was measured at a wavelength of 340 nm. HSP47 (GenScript US) was added at a concentration of 9.45 μg/ml to assess HSP47 activity as the degree to which it inhibits fibril formation. Test compound was added with concentrations of 100 μM to 1 μM and the inhibitory activity of HSP47 was calculated as a percentage or EC50.

[2] = tested on: LX-2 cells; test: Sirius red assay, hepatic stellate cell fibrosis (TGF-beta treated LX-2); type: cell-based; conditions: Homo sapiens; for EC50: LX-2, collagen production, TGF-beta 10 ng/ml, 24 hours; for inhibition at 10 µM: LX-2 cells, collagen production
Experimental: (§1) Liver stellate LX-2 (Elabscience C H), lung epithelial A549 (ATCC US), or skin KEL FIB (ATCC, US) cells were cultured in 24-well tissue culture plates for 18 hours, followed by TGF-beta 10 ng/ml treatment, and then incubated with test compound for 24 hours. Cells were washed with PBS, fixed with Bouin's solution, and washed twice with distilled water. The fixed cells were stained with Sirius red for 2 hours to observe cellular morphological changes, and then washed with 0.01 N HCl solution. Collagen-bound Sirius red was extracted with 0.1 N NaOH solution, which was then quantified at a wavelength of 570 nm. The inhibitory efficacy of each compound on collagen production was shown as a percentage or EC50.

[3] = tested on: MCP-1 (Monocyte chemoattractant protein-1) secretion; test: Inhibition of MCP-1 secretion in LX-2 cells (ELISA); type: cell-based; conditions: Homo sapiens, TGF-beta 10 ng/ml, 30 to 1 μM test compound, 24 hours, read-out: LX-2 cell EC50 (MCP-1 secretion)
Experimental: LX-2 cells, a hepatic stellate cell line, were cultured in 24-well tissue culture plates for 18 hours, followed by TGF-beta 10 ng/ml treatment, and then incubated with 30 to 1 μM of the test compound for 24 hours. The secreted MCP-1 protein in the cell culture medium was quantified using ELISA reagents (RnD, USA). The EC50 value was calculated from the quantitative value of MCP-1 resulting from the treatment of each test compound using prism software (Graphpad, ver 9.4 USA).

[4] = tested on: A549 cells; test: Sirius red assay, lung epithelial cell fibrosis (TGF-beta treated A549); type: cell-based; conditions: Homo sapiens, collagen production
Experimental: as §1

inhibition at 100 µM [1] [%]	EC50 [2] [µM]	EC50 [3] [µM]	EC50 [1] [µM]	Compound	inhibition at 10 µM [2] [%]	inhibition at 10 µM [4] [%]	inhibition at 30 µM [4] [%]
23.3	3	4.61		CCc1oc2cccc(Cl)c2c1C(=O)c1cc(Br)c(O)c(Br)c1 [Example 1, (4-chloro-2-ethylbenzofuran-3-yl)(3,5-dibromo-4-hydroxyphenyl)methanone]			
	5.55	8.69	73	CCc1oc2c(C)cccc2c1C(=O)c1cc(Br)c(O)c(Br)c1 [Example 4, (3,5-dibromo-4-hydroxyphenyl)(2-ethyl-7-methylbenzofuran-3-yl)methanone]			
	4.73	3.56	37.8	CCc1oc2c(Cl)cccc2c1C(=O)c1cc(Br)c(O)c(Br)c1 [Example 5, (7-chloro-2-ethylbenzofuran-3-yl)(3,5-dibromo-4-hydroxyphenyl)methanone]			
	17.1	10.2	80.8	CCc1oc2c(Br)cccc2c1C(=O)c1cc(Br)c(O)c(Br)c1 [Example 6, (7-bromo-2-ethylbenzofuran-3-yl)(3,5-dibromo-4-hydroxyphenyl)methanone]			
18.1	10.9	2.85		CCc1oc2c(F)cccc2c1C(=O)c1cc(Br)c(O)c(Br)c1 [Example 7, (3,5-dibromo-4-hydroxyphenyl)(2-ethyl-7-fluorobenzofuran-3-yl)methanone]			
			31.4	O=C(c1cc(Br)c(O)c(Br)c1)c1coc2ccccc12 [Example 16, benzofuran-3-yl(3,5-dibromo-4-hydroxyphenyl)methanone]		64.3	
19.5	3.7	3.73		Cc1oc2cc(Br)ccc2c1C(=O)c1cc(Br)c(O)c(Br)c1 [Example 17, (6-bromo-2-methylbenzofuran-3-yl)(3,5-dibromo-4-hydroxyphenyl)methanone]			
75.2	4.67	3.01		Cc1oc2ccc(Br)cc2c1C(=O)c1cc(Br)c(O)c(Br)c1 [Example 18, (5-bromo-2-methylbenzofuran-3-yl)(3,5-dibromo-4-hydroxyphenyl)methanone]			
	3.07	2.8	5.52	CCc1oc2c(CC)cccc2c1C(=O)c1cc(Br)c(O)c(Br)c1 [Example 21, (3,5-dibromo-4-hydroxyphenyl)(2,7-diethylbenzofuran-3-yl)methanone]			
	3.39		71	CCc1oc2cccc(C)c2c1C(=O)c1cc(Br)c(O)c(Br)c1 [Example 23, (3,5-dibromo-4-hydroxyphenyl)(2-ethyl-4-methylbenzofuran-3-yl)methanone]			
	3.6		104	CCc1oc2cccc(F)c2c1C(=O)c1cc(Br)c(O)c(Br)c1 [Example 24, (3,5-dibromo-4-hydroxyphenyl)(2-ethyl-4-fluorobenzofuran-3-yl)methanone]			

The next lines start with the molecule.

Compound	inhibition at 100 µM [1] [%]	EC50 [2] [µM]	EC50 [3] [µM]	EC50 [1] [µM]	inhibition at 10 µM [2] [%]	inhibition at 10 µM [4] [%]	inhibition at 30 µM [4] [%]
CCc1oc2ccc(C)cc2c1C(=O)c1cc(Br)c(O)c(Br)c1 [Example 2, (3,5-dibromo-4-hydroxyphenyl)(2-ethyl-5-methylbenzofuran-3-yl)methanone]				40.8	65.1		
CCc1ccc2c(C(=O)c3cc(Br)c(O)c(Br)c3)c(CC)oc2c1 [Example 3, (3,5-dibromo-4-hydroxyphenyl)(2,6-diethylbenzofuran-3-yl)methanone]	26.3	1.37	2.21				
CCc1oc2ccc(C)cc2c1C(=O)c1cc(I)c(O)c(I)c1 [Example 8, (2-ethyl-5-methylbenzofuran-3-yl)(4-hydroxy-3,5-diiodophenyl)methanone]				37.1	67.9		
CCc1oc2cc(C)ccc2c1C(=O)c1cc(I)c(O)c(I)c1 [Example 10, (2-ethyl-6-methylbenzofuran-3-yl)(4-hydroxy-3,5-diiodophenyl)methanone]	41.8				128		
CCc1oc2cc(Br)ccc2c1C(=O)c1cc(I)c(O)c(I)c1 [Example 11, (6-bromo-2-ethylbenzofuran-3-yl)(4-hydroxy-3,5-diiodophenyl)methanone]	69.2				78.3		
CCc1oc2c(C)cccc2c1C(=O)c1cc(I)c(O)c(I)c1 [Example 13, (2-ethyl-7-methylbenzofuran-3-yl)(4-hydroxy-3,5-diiodophenyl)methanone]				49.1		65.2	72.5
CCc1oc2c(Cl)cccc2c1C(=O)c1cc(I)c(O)c(I)c1 [Example 14, (7-chloro-2-ethyl-3-yl)(4-hydroxy-3,5-diiodophenyl)methanone]					90.6		
CCc1oc2c(Br)cccc2c1C(=O)c1cc(I)c(O)c(I)c1 [Example 15, (7-bromo-2-ethylbenzofuran-3-yl)(4-hydroxy-3,5-diiodophenyl)methanone]				48.3			96.2
CCc1ccc2oc(CC)c(C(=O)c3cc(Br)c(O)c(Br)c3)c2c1 [Example 20, (3,5-dibromo-4-hydroxyphenyl)(2,5-diethylbenzofuran-3-yl)methanone]		4.02	2.1	49.2			
